Reference: article PMC10046901, “Molecular Analysis of the Superior Efficacy of a Dual Epidermal Growth Factor Receptor (EGFR)-DNA-Targeting Combi-Molecule in Comparison with Its Putative Prodrugs 6-Mono-Alkylamino- and 6,6-Dialkylaminoquinazoline in a Human Osteosarcoma Xenograft Model” (Cells, 2023)

Legend:
U2-OS = test: cells; format: cell-based; settings: Homo sapiens, U2OS, 120 h, read-out: IC50 growth inhibition
KHOS/NP = test: cells; format: cell-based; settings: Homo sapiens, 120 h, read-out: IC50 growth inhibition
MNNG/HOS = test: cells; format: cell-based; settings: 120 h, read-out: IC50 growth inhibition
Saos-2 = test: cells; format: cell-based, human; settings: Homo sapiens, SAOS-2, 120 h, read-out: IC50 growth inhibition
MG-63 = test: cells; format: cell-based; settings: Homo sapiens, MG-63, 120 h, read-out: IC50 growth inhibition
[1] = tested on: several other osteosarcoma cell lines; set-up: method as in PMID 23091447; settings: concentrations of up to 20 μM; cited from earlier work

SMILES | IC50 (U2-OS) | IC50 (KHOS/NP) | IC50 (MNNG/HOS) | IC50 (Saos-2) | IC50 (MG-63) | effect on viability of osteosarcoma cell lines [1]
O=C(O)CCCc1ccc(N(CCCl)CCCl)cc1 [Chlorambucil, chlorambucil, reference compound] | 9.59 ± 0.55 µM | 9.25 ± 1.35 µM | 12.1 ± 1.01 µM | 7.53 ± 0.75 µM | 13.1 ± 1.28 µM | –
COc1cc2ncnc(Nc3ccc(F)c(Cl)c3)c2cc1OCCCN1CCOCC1 [Gefitinib, gefitinib] | – | – | – | – | – | did not reduce the viability
